# Reference: a melting point compilation (Tetko et al.)
row,melting point [°C],SMILES
1,91 to 95,COc1ccc(-n2c(C)cc(C(=O)CCl)c2C)cc1
2,164 to 166,Nc1cccc(-n2c(O)c(O)n(C3CC3)c2=O)c1
3,138 to 140,O=C(O)CCc1nc(-c2ccccc2)no1
4,222 to 224,CC(=O)c1c[nH]c2cc(F)ccc12
5,143 to 145,N#Cc1ccc(Cl)cc1NC1CCOCC1
6,123 to 125,Nc1cccc(-c2ccc3c(c2)CCO3)n1
7,167 to 169,Cc1cc(=O)c(C(=O)O)nn1-c1ccccc1
8,97 to 99,O=C1CC(c2ccccc2F)C(=O)N1 (centres undefined)
9,155 to 157,NS(=O)(=O)c1c(Cl)cccc1C(F)(F)F
10,177 to 179,Cc1ccc(CN(C)c2ccc(C(=O)O)cc2)cc1
11,197 to 199,O=C(O)c1cccc(NS(=O)(=O)c2cccs2)c1
12,249 to 251,Nc1oc2ccccc2c(=O)c1C=O
13,186 to 188,NCc1cccc(NS(=O)(=O)c2ccc(Cl)cc2)c1
14,90 to 92,COC(=O)c1noc(C)c1C(=O)c1ccccc1
15,54 to 56,COCCOc1ccc(F)cc1[N+](=O)[O-]
16,113 to 115,CC(Oc1cccc(Br)c1)C(=O)NN (centres undefined)
17,159 to 161,CCc1ccc(C(=O)O)cc1S(=O)(=O)N1CCOCC1
18,61 to 63,O=C(c1ccc(F)cc1)c1ccccc1Cl
19,97 to 99,CS(=O)(=O)c1c(N)cccc1Cl
20,156 to 158,COCCc1nnc(-c2cccc(C(=O)O)c2)o1
21,147 to 149,CS(=O)(=O)c1cccc(Cl)c1C(=O)O
22,345 to 347,O=C(O)c1ccc(Nc2ncnc3ccccc23)cc1
23,194 to 196,Cc1cccc(-n2c(C)cc(C(=O)O)c2C)c1
24,140 to 142,COc1ccc(C2(C(=O)O)CCCC2)cc1OC
25,122 to 124,Nc1ccc(F)cc1-c1nc(CCOc2ccccc2)no1
26,91 to 93,COc1ccc(C=NO)cc1OC

row,melting point [°C],SMILES
1,169 to 171,Cc1cc(N)ccc1S(N)(=O)=O
2,169 to 171,O=C1Nc2ccccc2N2CCC12 (centres undefined)
3,179 to 181,O=C(O)c1cc2ccccn2c1
4,89 to 91,COCCOc1ccc(Cl)c(C(=O)O)n1
5,197 to 199,O=C(O)c1cccc(OCc2cn3ccccc3n2)c1
6,155 to 157,NC(=O)Nc1ccccc1-c1ccccc1
7,202 to 204,O=C(O)c1cc(-c2ccccc2)cc(Cl)c1O
8,76 to 78,Fc1cc(F)c2cccnc2c1
9,127 to 129,COc1cc([N+](=O)[O-])ccc1I
10,145 to 147,Nc1ccc(NC(=O)C2CC2)cc1C(F)(F)F
11,97 to 99,CC(C)n1cnnc1-c1ccccc1N
12,65 to 67,CC(C)(C(=O)O)c1cccc(Cl)c1
13,124 to 126,N#Cc1ccc(N2CCCC(Br)C2=O)cc1 (centres undefined)
14,176 to 178,Cc1ccc(-n2nnc(C(=O)O)c2C(C)C)cc1
15,219 to 221,O=C(O)Cn1ncc2ccc([N+](=O)[O-])cc21
16,92 to 94,CC(C)CNC(=O)C(C)Nc1cccc(Br)c1 (centres undefined)
17,95 to 97,Fc1ccccc1CCNC1=NCCS1
18,133 to 135,Cc1ccc(S(=O)(=O)CC(=O)CBr)cc1
19,180 to 182,Nc1c(C(=O)c2ccco2)oc2ccccc12
20,230 to 232,CN1CCN(S(=O)(=O)c2cccc(C(=O)O)c2)CC1
21,149 to 151,Nc1ccc(Cl)cc1C(=O)c1ccc[nH]1
22,49 to 51,O=C1CCCSc2ccc(Cl)cc21
23,161 to 163,CCOC(=O)C1CN(Cc2ccccc2)CCC1=O (centres undefined)
24,103 to 105,O=C(O)Cc1coc2cc(F)ccc12
25,95 to 97,O=S(=O)(NCC1CC1)c1ccc(Cl)nc1
26,243 to 245,Cc1ccc2[nH]cc(C(=O)C(F)(F)F)c2c1

row,melting point [°C],SMILES
1,208 to 210,O=C(O)CC(O)(c1ncc[nH]1)C(F)(F)F (centres undefined)
2,100 to 102,NCc1cccc(NC(=O)c2cccc(F)c2)c1
3,359 to 361,NC(=O)c1ccc2c(N)ncnc2c1
4,37 to 39,O=C1CCCOc2cc(F)ccc21
5,279 to 281,O=C(O)c1ccc(-n2ccnn2)cc1
6,182 to 184,O=C(O)c1ccc(CN2CCc3ccccc32)cc1
7,82 to 84,O=S(=O)(Cl)c1ccc(OCC2CCCCC2)cc1
8,110 to 112,CC1CN(S(=O)(=O)c2ccc(NC(=O)CCl)cc2)CC(C)O1 (centres undefined)
9,161 to 163,COC(=O)C=Cc1ccc([N+](=O)[O-])cc1
10,99 to 101,N#CCC(=O)c1cccc2c1OCCO2
11,114 to 116,Nc1cccc(C(=O)N2CCSCC2)c1
12,173 to 175,COc1ccc(S(=O)(=O)NCC(=O)O)cc1OC
13,136 to 138,Nc1cccc(N2C(=O)CC3(CCCC3)C2=O)c1
14,149 to 151,O=C(NO)c1c(F)cccc1Cl
15,172 to 174,CN1CCCCC/C1=N\S(=O)(=O)c1cccc(N)c1
16,96 to 98,OC1CCCc2nc(-c3ccccc3)sc21 (centres undefined)
17,149 to 151,O=C(O)c1ccc(-c2cccc(OC(F)(F)F)c2)s1
18,127 to 129,Cc1ccc(C(=O)CCC(=O)O)cc1C
19,70 to 72,CCN(CC)S(=O)(=O)c1cc(NC(=O)CCl)ccc1C
20,71 to 73,Cc1ccccc1CNc1ccccc1N
21,79 to 81,CCOC(=O)c1ccn(-c2ccccc2N)n1
22,127 to 129,CCOC(=O)CN1C(=O)C(=O)c2ccccc21
23,249 to 251,NC(=O)C1Cc2[nH]cnc2CN1 (centres undefined)
24,238 to 240,CCOc1cc(C(=O)O)ccc1OCc1ccncc1
25,200 to 202,O=C(c1ccc(O)cc1)N1CCc2sccc2C1
26,192 to 194,CC1(c2ccc3c(c2)OCCCO3)NC(=O)NC1=O (centres undefined)

# Continued, molecule first:
row,SMILES,melting point [°C]
1,Cc1ccc(Cc2cnc(N)s2)cc1,142 to 144
2,COC(=O)c1cc(S(=O)(=O)Cl)c(Br)cc1Cl,135 to 137
3,Cc1ccnc2[nH]c(CCl)nc12,274 to 276
4,CC(C)(C)C(=O)NO,169 to 171
5,COc1ccc(Oc2ncccc2N)cc1,149 to 151
6,CN(CC(N)=S)C(=O)OC(C)(C)C,149 to 151
7,Cc1ncc(CN)c(O)n1,194 to 196
8,c1ccc(Cn2ccnc2)nc1,63 to 65
9,CC(C)C(=O)NC(C)C(=O)O (centres undefined),154 to 156
10,O=C1C=CC(=O)N1CCCN1CCOCC1,39 to 41
11,NS(=O)(=O)c1cn[nH]c1,200 to 202
12,ClCc1nc(-c2cccc(Cl)c2)no1,38 to 42
13,CCc1nnsc1C(=O)NC1CCCCC1,80 to 82
14,Cc1oc(-c2cccs2)nc1CC(=O)O,185 to 187
15,CCOc1ccc(C(=O)C(C)Cl)cc1 (centres undefined),62 to 64
16,OC(c1ccccc1)c1nc2cc(Cl)ccc2[nH]1 (centres undefined),184 to 186
17,N#CCN1C(=O)c2ccccc2C1=O,125 to 127
18,O=[N+]([O-])c1ccc(Cl)c(CCl)c1,61 to 63
19,Cc1nn(C2CCCCC2)c(C)c1N,69 to 71
20,Oc1ccccc1-c1ccn[nH]1,95 to 97
21,CC(NC(=O)OC(C)(C)C)C(N)=NO (centres undefined),139 to 141
22,Cc1sc2nc(CCl)[nH]c(=O)c2c1-c1ccccc1,259 to 261

row,SMILES,melting point [°C]
1,CC(C)c1ccc(S(=O)(=O)N2CCNCC2)cc1,125 to 127
2,Nc1cc2c(nn1)CCNC2,219 to 221
3,Fc1ccc(CNc2nc3ccccc3s2)cc1,155 to 157
4,CNc1cnnc2ccccc12,232 to 234
5,CCCCCCOc1ccc(CC(=O)O)cc1,79 to 81
6,CCc1c(C(=O)O)cnn1C,144 to 146
7,OCC(c1ccc(Br)cc1)N1CCNCC1 (centres undefined),109 to 111
8,COC(=O)CCc1nnc(N)s1,135 to 137
9,Cc1ccc(-n2[nH]c(C(=O)O)c(CCO)c2=O)cc1,199 to 201
10,O=C(O)Cn1cnc(-c2ccccc2)n1,179 to 181
11,N#CCc1nc2cc(Cl)ccc2c(=O)[nH]1,282 to 284
12,O=C(O)Cn1cccn1,139 to 141
13,CN1CC(=O)Nc2cccnc21,161 to 163
14,O=C(Nc1ccccc1C(=O)O)c1ccc(Oc2ccccc2)cc1,189 to 191
15,Cn1ncc(Cl)c(Cl)c1=O,87 to 89
16,CNC(=O)CC(N)=NO,119 to 121
17,CCOC(=O)C(NC(=O)c1ccccc1)C(=O)OCC,62 to 64
18,CC(=O)c1nnn(-c2cccc3ncccc23)c1C,116 to 118
19,O=S(=O)(Cl)c1ccc2nc(Cl)sc2c1,98 to 100
20,NNC(=O)CSc1nnc(-c2ccccc2)n1-c1ccccc1,242 to 244
21,CCOC(=O)c1cncnc1O,179 to 181
22,O=C(CCl)NC1CCN(C(=O)C2CCCCC2)CC1,133 to 135

row,SMILES,melting point [°C]
1,Cc1cc(-n2c(C)cc(C(=O)CCl)c2C)no1,110 to 112
2,Cn1ccc(NC(=O)CC#N)n1,159 to 161
3,NC(=S)CCN1CCOC1=O,140 to 142
4,Cc1occc1C(=O)NCC(=O)O,143 to 145
5,c1ccc(-c2nnn[nH]2)nc1,214 to 216
6,Cc1cc(C)c2c(=O)[nH][nH]c2n1,249 to 251
7,Fc1ccc(-c2nc(CCl)no2)cc1,51 to 55
8,c1n[nH]cc1C1CCCCN1 (centres undefined),114 to 116
9,Clc1cc(N2CCSCC2)ncn1,134 to 136
10,COc1ccc(C=C[N+](=O)[O-])cc1Cl,95 to 97
11,CN(C)c1nc2cc(C#N)ccc2o1,203 to 205
12,CCCCn1nnnc1CCl,< 17
13,Oc1ccc(-n2cccn2)cc1,107 to 109
14,CC(C)(C)c1cnc(S)o1,131 to 133
15,c1nnc(C2CCCNC2)[nH]1 (centres undefined),149 to 151
16,O=C(O)Cn1c(-c2cccc(Cl)c2Cl)nc2ccccc21,235 to 237
17,Cc1ccc(-n2cc(S(=O)(=O)Cl)cn2)cc1,92 to 94
18,OCCN1CCSCC1,34 to 36
19,ClCc1nnc(-c2ccc(Br)s2)o1,109 to 111
20,O=C(O)CCc1n[nH]c(S)nc1=O,162 to 164
21,Cc1ccc(C)c(-n2nnnc2S)c1,129 to 131
22,Nc1ncncc1CO,165 to 167
